From ChEMBL document CHEMBL2073976, “Circumvention of multidrug resistance by a newly synthesized quinoline derivative, MS-073” (Cancer Res, 1991)

Target: ATP-dependent translocase ABCB1 (Homo sapiens, UniProt P08183)
Experiment: TP_TRANSPORTER: increase in VCR intracellular accumulation (VCR: 0.03 uM, MS-073: 3 uM) in K562/ADM cells
Type: functional, cell-based
Details: k562/adr

ATP-dependent translocase ABCB1, sequence (P08183 whole entry): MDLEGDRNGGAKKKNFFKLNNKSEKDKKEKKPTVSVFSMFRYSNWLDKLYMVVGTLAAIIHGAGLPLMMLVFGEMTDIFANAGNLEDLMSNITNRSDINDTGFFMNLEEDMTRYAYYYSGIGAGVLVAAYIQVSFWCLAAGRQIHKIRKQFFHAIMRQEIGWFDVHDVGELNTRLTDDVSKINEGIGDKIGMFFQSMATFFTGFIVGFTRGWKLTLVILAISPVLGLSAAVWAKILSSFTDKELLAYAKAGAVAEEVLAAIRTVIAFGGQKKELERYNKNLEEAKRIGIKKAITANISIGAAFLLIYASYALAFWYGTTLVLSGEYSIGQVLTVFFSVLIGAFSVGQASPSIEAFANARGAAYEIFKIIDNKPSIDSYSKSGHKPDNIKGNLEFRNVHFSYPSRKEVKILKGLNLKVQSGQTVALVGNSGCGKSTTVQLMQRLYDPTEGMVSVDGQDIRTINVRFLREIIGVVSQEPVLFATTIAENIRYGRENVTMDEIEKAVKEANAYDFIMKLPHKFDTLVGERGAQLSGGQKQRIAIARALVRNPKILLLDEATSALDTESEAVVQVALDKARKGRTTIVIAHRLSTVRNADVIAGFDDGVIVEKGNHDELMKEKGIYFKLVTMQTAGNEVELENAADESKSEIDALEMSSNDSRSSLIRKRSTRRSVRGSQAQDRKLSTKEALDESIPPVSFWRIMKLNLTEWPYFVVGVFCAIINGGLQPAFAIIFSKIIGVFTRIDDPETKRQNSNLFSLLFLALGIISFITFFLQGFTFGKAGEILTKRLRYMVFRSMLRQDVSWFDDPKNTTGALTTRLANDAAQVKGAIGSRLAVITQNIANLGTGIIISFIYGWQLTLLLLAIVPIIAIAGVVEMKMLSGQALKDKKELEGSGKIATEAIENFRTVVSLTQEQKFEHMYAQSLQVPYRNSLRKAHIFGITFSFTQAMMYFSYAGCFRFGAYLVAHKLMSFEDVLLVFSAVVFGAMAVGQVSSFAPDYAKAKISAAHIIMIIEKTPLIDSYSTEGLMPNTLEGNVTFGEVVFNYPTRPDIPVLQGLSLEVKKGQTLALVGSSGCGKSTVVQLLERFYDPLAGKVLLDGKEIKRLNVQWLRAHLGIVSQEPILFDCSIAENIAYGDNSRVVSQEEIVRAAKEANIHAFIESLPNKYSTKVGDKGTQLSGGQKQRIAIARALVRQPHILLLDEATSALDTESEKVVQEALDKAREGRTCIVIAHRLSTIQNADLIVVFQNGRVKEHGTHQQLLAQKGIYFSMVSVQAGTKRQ

Activity: inhibitor [+]
SMILES: OC(COc1cccc2ncccc12)CN1CCN(C2c3ccccc3CCc3ccccc32)CC1 (stereo unspecified)
